Test results taken from US20060223879A1, “Non-steroidal farnesoid x receptor modulators” (priority 2002, published 2006).
“And” between values parts separate entries of the source, which are not always exact repeats. Equal values may be shown once. Read-outs that look alike come from different tables or passages of the source.

Tests used:
FXR = biological target: T1, FXR (Homo sapiens, UniProt Q96RI1); test: cell-based transcription assay, FXR responsive promoter linked to a luciferase reporter; parameters: RE: scale not given here; conditions: for RE: RE not defined in the source
T1 construct: using a full length FXR on a natural response element; expressed in transfected cells
T1 sequence (Q96RI1 1-486): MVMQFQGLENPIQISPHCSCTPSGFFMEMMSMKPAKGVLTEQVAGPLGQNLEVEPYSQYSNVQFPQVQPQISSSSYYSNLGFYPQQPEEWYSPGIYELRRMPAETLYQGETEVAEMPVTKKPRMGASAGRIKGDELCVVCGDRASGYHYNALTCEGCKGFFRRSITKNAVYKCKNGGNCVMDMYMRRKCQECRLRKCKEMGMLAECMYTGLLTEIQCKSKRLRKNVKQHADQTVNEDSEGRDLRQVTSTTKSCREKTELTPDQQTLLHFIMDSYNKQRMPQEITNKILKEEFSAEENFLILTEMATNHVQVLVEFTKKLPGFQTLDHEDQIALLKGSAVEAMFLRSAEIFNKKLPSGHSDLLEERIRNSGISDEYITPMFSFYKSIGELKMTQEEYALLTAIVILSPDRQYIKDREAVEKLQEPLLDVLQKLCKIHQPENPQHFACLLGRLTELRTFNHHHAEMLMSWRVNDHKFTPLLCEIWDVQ
Method in brief: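 Cells co-transfected with full-length FXR and a luciferase reporter carrying a natural hormone response element on a minimal promoter.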

SXR = biological target: T2, SXR (Homo sapiens, UniProt O75469); test: screen against a panel of nuclear receptors: SXR activation; type: cell-based; conditions: nuclear receptor panel
T2 sequence (O75469 1-434): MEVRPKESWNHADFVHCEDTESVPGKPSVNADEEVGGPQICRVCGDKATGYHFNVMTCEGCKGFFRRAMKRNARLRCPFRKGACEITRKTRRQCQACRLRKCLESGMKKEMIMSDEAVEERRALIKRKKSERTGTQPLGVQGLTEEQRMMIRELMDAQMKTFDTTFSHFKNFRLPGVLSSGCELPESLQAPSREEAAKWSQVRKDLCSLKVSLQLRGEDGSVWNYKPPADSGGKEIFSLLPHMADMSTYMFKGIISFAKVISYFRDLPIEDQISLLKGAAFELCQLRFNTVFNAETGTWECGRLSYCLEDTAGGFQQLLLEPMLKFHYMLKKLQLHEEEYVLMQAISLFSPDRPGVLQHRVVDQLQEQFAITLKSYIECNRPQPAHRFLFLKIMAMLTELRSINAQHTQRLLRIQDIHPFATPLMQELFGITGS

[1] = FXR activation, cell-based reporter assay, read-out: EC50
[2] = Tables 1-15, FXR activation, cell-based reporter assay, read-out: EC50

Compound	EC50 (FXR; [1])	RE (FXR; Tables 1-15)	EC50 (FXR; [2]) [nM]	also measured
COC(=O)/C=C/c1cccc(N(Cc2ccc3c(c2OC)OC(C)(C)C2C3C2(Cl)Cl)C(=O)C2CCCCC2)c1 (stereo not drawn) [Compound 149]	188 nM	0.50	–	SXR activation (in words) (SXR): potently activated SXR
COc1c(CN(Cc2ccccc2)C(=O)C2CC2)ccc2c1OC(C)(C)C=C2 [Compound 23]	–	–	–	EC50 (FXR; library screening hits and leads, read-out: activity (EC50)): 5000 to 10000 nM
COC(=O)/C=C/c1cccc(N(Cc2cc(OC)cc(OC)c2)C(=O)C2CCCCC2)c1 [Compound 116]	–	0.11	–	–
COC(=O)CCc1cccc(N(Cc2ccc(/C=C/C(=O)OC(C)(C)C)cc2)C(=O)C2CCCCC2)c1 [Compound 139]	274 nM	RE^a = 1.38	–	–
COC(=O)/C=C/c1cccc(N(Cc2ccc3c(c2OC)OC(C)(C)C=C3)C(=O)c2ccccc2)c1 [Compound 68]	1000 nM	0.83	> 1000	–
COC(=O)/C=C/c1cccc(N(Cc2cc(OC)cc(OC)c2)C(=O)C2CCCCC2)c1 [Compound 118]	606 nM	–	–	–
COC(=O)/C=C/c1cccc(N(Cc2ccccc2)Cc2ccc3c(c2OC)OC(C)(C)C=C3)c1 [Compound 78]	–	–	–	FXR activation (in words) (FXR; cell-based reporter assay): inactive
CCOCC=Cc1cccc(N(Cc2ccc(C=CC(=O)OC(C)(C)C)cc2)C(=O)C2CCCCC2)c1 [Compound 137]	220 nM	1.74	–	–
COC(=O)C=Cc1cccc(N(Cc2ccc3c(c2OC)OC(C)(C)C(OC(C)=O)C3N2CCCCC2)C(=O)c2ccccc2)c1 (stereo not drawn) [Compound 101]	–	–	–	FXR activation (in words) (FXR; cell-based reporter assay): Nor did the addition of H-bond acceptors such as in 89, 90, 95, 99 and 101 improve the ability of the parent compound 68 to activate FXR

Second part, led by results:

EC50 (FXR; [1])	RE (FXR; Tables 1-15)	EC50 (FXR; [2]) [nM]	Compound	also measured
–	0.30	149	COC(=O)/C=C/c1cccc(N(Cc2ccc(/C=C/c3c(C)cc(C)cc3C)cc2)C(=O)C(C)C)c1 [Compound 196]	–
127 nM and 127 to 250 nM	2.12	–	COC(=O)/C=C/c1cccc(N(Cc2ccc(/C=C/C(=O)OC(C)(C)C)cc2)C(=O)C2CCCCC2)c1 [Compound 105]	–
–	0.53	1330	COC(=O)/C=C/c1cccc(N(Cc2ccc(-c3cccc(C)c3)cc2)C(=O)NC(C)C)c1 [Compound 240]	–
–	0.27	> 1000	COC(=O)/C=C/c1cccc(N(Cc2ccc(/C=C/C(=O)OC(C)(C)C)cc2)C(=O)NCc2ccccc2)c1 [Compound 146]	FXR activation (in words) (FXR; cell-based reporter assay): only marginal efficacy
–	1.43	109	COC(=O)/C=C/c1cccc(N(Cc2ccc(-c3cccc(C)c3)cc2)C(=O)C2CCCCC2)c1 [Compound 238]	FXR activation (in words) (FXR; cell-based reporter assay): excellent activity
243 nM	1.88	–	COCC=Cc1cccc(N(Cc2ccc(C=CC(=O)OC(C)(C)C)cc2)C(=O)C2CCCCC2)c1 [Compound 136]	–
–	0.10	561	COC(=O)/C=C/c1cccc(N(Cc2ccc(-c3c(OC)cccc3OC)cc2)C(=O)NC(C)C)c1 [Compound 258]	–
–	0.13	1830	COC(=O)/C=C/c1cccc(N(Cc2ccc(/C=C/c3cc(C(F)(F)F)cc(C(F)(F)F)c3)cc2)C(=O)NC(C)C)c1 [Compound 185]	–
